Experiments:
Solubility in mQ water = format: physicochemical; details: 50 mg in 0.5 mL mQ water, room temperature
Method: The solubility of Compounds 1 and 10 was determined by dissolving 50 mg of the tested compound in 0.5 mL of mQ water, at room temperature.

naive mice = test: Single dose oral toxicity in naive mice; format: in vivo; details: single oral dose 3 mg/kg to 500.0 mg/kg, 24 h
Method: The toxicity of oral administration of a single dose of Compound 10 was tested in naïve mice using range from 3 mg/kg to 500.0 mg/kg.

[1] = test system: MOG35-55 EAE in C57BL/6J mice; test: MOG35-55 EAE prevention (immunization) model; format: in vivo; details: for minimal effective dose: oral
Method: Mice: Eight-weeks-old female C57BL/6J mice (15-20 g, Harlan laboratories, Rehovot, Israel) were used in all experiments. Animal maintenance and experimental protocols were performed in accordance with the Israeli Council for Animal Care guidelines and approved by Sheba IRB Animal Care Committee. Mice were kept in an SPF environment, maintained on a 12-h light/dark cycle at a constant environmental temperature with free access to food and water in their home cages.
Induction of MOG35-55 EAE (Prevention Model): EAE (Experimental Autoimmune Encephalomyelitis) was induced in 8 week old female C57BL/6J mice (15-20 g, Harlan laboratories, Rehovot, Israel) by immunization with an emulsion containing 300 μg of purified myelin oligodendrocyte glycoprotein (MOG) peptide ([…], corresponding to residues 35-55; obtained from (Difco, Detroit, Mich.) in saline and an equal volume of complete Freund's adjuvant containing 5 mg H37RA (Difco, Detroit, Mich.). 0.2 ml of the inoculum was injected subcutaneously. In addition, 300 ng of Bordetella pertusis toxin (Sigma) in 0.2 ml saline was injected intraperitoneally at the day of induction and two days later.
Oral gavages with the tested compound, at various concentrations ranging from 3 mg/kg-30 mg/kg in PBS or 50 mM NaH2PO4 (PH 4.5), or with vehicle only, were initiated at day of immunization. Mice were monitored daily for clinical signs of EAE, scored as: 1, flaccid tail; 2, forelimb weakness and poor righting ability; 3, hind limb paralysis; 4, quadriplegia; 5, moribund. Animal reaching a score of 4 were scarified using CO2.
Treatment was stopped once 30% of the vehicle-treated animals scored 1 on the EAE score. […]
The therapeutic index (LD50/ED50), which is also referred to herein as Safety Margin (SM), was then determined based on the EAE model. ED50 is the minimum effective dose observed for 50% of the tested animals.

Pol I = test: Cell-free Pol I transcription assay; format: biochemical, human; details: 200 nM
Method: Cell-free Pol I transcription assay was performed according to Drygin et al. (2010). Briefly, a reaction mixture consisting of 8 units of HeLa scribe nuclear extract (Promega) in transcription buffer and MgCl2 (4 mM) was combined with POL1-Inhibitor (200 nM) and […] a-amanitin (Sigma) for 20 minutes at ambient temperature. Following, 10 ng DNA template (GENEWIZ, Inc.; http://www(dot)genewiz(dot)com(dot)cn) corresponding to the (−160/+350) region on human rDNA was added and the reaction was incubated for 5 minutes at ambient temperature. Transcription was initiated by adding rNTPs mix to a final concentration of 1 mM and the reaction was incubated for 1 hour at 30° C. Afterward, DNase I (Ambion kit) was added and the reaction was further incubated for 25 minutes at 37° C. DNase activity was terminated with adding an inactivation solution according the manufacturer's protocol. The samples were then subjected for RNA isolation (following the same procedure described in Example 3 hereinabove). Pellets of RNA were re-suspended in DEPC-treated double distilled water and subjected for reverse transcription by a High capacity kit (Applied Biosystems). The resultant transcripts were analyzed by qRT-PCR in a Light cycler 480 system using primer pairs (Sigma) and probe for real-time PCR. […]

[2] = Toxicity (LD50, survival) in the EAE model, continuous administration; format: in vivo; details: C57BL/6J, mouse, in vivo, oral; EAE prevention model, continuous administration
Method: (§1) The animals were evaluated for signs of acute toxicity and survival during the entire administration period in the EAE model.
(§2) The therapeutic index (LD50/ED50), which is also referred to herein as Safety Margin (SM), was then determined based on the EAE model.

C57BL/6J mice = test: as above; format: in vivo
Method: as §1, §2

Mouse splenocytes = test: XTT cell viability assay, PHA-stimulated splenocytes; format: cell-based; details: 72 hours
Method: Cell viability was assessed by the 2,3 bis [2-Methoxy-4-nitro-5-sulfophenyl]-2H-tetrazolium-5-carboxanilide (XTT) assay (Biological Industries, Kibbutz Beit Hemeek, Israel), which measures the reduction of a tetrazolium component (XTT) into soluble formazan product by the mitochondria of viable cells. The intensity of the dye obtained is proportional to the number of metabolic active cells. On the day of measurement, cells were washed and XTT was added according to the manufacturer's instructions. Plates were incubated at 37° C. for 2-5 hours. The absorbance was read at 450 nm.
Mouse splenocytes were removed and spleenocytes were plated (250,000 cell/well) in DMEM+10% FCS+P/S+Q and […] Phytohaemaglutinin (PHA), in the presence of elevated concentrations (25-400 nM) of RAM-0 (Compound 1), RAM-1 (Compound 4), RAM-2 (Compound 2) or RAM-3 (Compound 3) for 72 hours. Cells cultured without PHA served as control. Control mice at zero are mice splenocytes with PHA stimulation.
Following incubation, cell viability was determined by XTT assay, as described above.

splenocytes = test: Viability, proliferation and apoptosis of MOG 35-55 incubated splenocytes from immunized mice (XTT, BrdU, flow cytometry); format: cell-based; details: splenocytes 14 days post immunization, 72 h MOG 35-55, vs vehicle
Method: In addition, viability, proliferation and apoptosis of splenocytes isolated from mice 14 days post immunization and incubated for 72 h with MOG 35-55 were assessed by XTT, BrdU and flow cytometry (Annexin V and propidium iodide double staining) assays, respectively.

[3] = EAE mice, 30 mg/kg every alternate day until disease onset

SMILES: Cc1cnc(CNC(=O)c2/c(=N/c3ccccc3)c3ccc(N4CCCN(C)CC4)nc3n3c2sc2ccccc23)cn1 [Compound 10, (E)-2-(4-methyl-1,4-diazepan-1-yl)-N-((5-methylpyrazin-2-yl)methyl)-5-(phenylimino)-5H-benzo[4,5]thiazolo[3,2-a][1,8]naphthyridine-6-carboxamide]
- solubility (Solubility in mQ water): immediately dissolved in the aqueous solution
- behavioral changes (naive mice): No behavioral changes
- survival (naive mice): No effect on survival
- disease incidence ([1]; 3 mg/kg, alternate days): 98%
- delay of disease development ([1]; 12.0 mg/kg oral, alternate days): 10 days
- EAE severity ([1]; 12.0 mg/kg oral, alternate days, 23 day post immunization): suppressed EAE severity
- EAE onset (dpi) ([1]; 12.5 mg/Kg oral, 15 mice): 19.2 ± 0.6 dpi
- Max clinical score ([1]; 12.5 mg/Kg oral, 15 mice): 1.2 ± 0.4
- Peak of EAE (dpi) ([1]; 12.5 mg/Kg oral, 15 mice): 20.4 ± 0.7 dpi
- Cumulative disease score ([1]; 12.5 mg/Kg oral, sum of scores day 0 to day 31): 7.2 ± 1.9
- additional days free of disease compared to vehicle ([1]; 12.5 mg/Kg, 15 mice per group): 10 days
- delay of peak of disease compared to vehicle ([1]; 12.5 mg/Kg, 15 mice per group): 6 days
- EAE inhibition ([1]; 12.5 mg/kg daily): complete inhibition of EAE
- disease incidence ([1]; 12.5 mg/kg, alternate days): 22%
- disease development ([1]; 30 mg/kg, alternate days): completely inhibited disease development
- ED50 ([1]; Mus musculus): 3 mg/kg
- minimal effective dose ([1]; alternate days): 6 mg/kg
- minimal effective dose ([1]; daily administration): 3.0 mg/kg
- inhibition of Pol I transcription from the pre-rRNA promoter (Pol I): about 40%
- LD50 [2]: 30 mg/kg
- survival (C57BL/6J mice; C57BL/6J, mouse, in vivo, 28 days): 100%
- behavioral changes (C57BL/6J mice; [3]): No behavioral changes
- survival (C57BL/6J mice; [3]): No effect on survival
- tolerability (C57BL/6J mice; [3]): well tolerated
- signs of toxicity (C57BL/6J mice; all treated groups, EAE model, alternate days): without apparent signs of toxicity
- suppression of splenocyte proliferation compared to Compound 1 (XTT) (Mouse splenocytes): improved performance
- IC50 (Mouse splenocytes; Splenocyte, mouse splenocytes, 25-400 nM): 40 nM
- apoptosis (Annexin V and propidium iodide) (splenocytes): induced apoptosis in CD4+ lymphocytes
- cell proliferation (BrdU) (splenocytes): suppressed cell proliferation
- viability (XTT) (splenocytes): reduced viability
